Consider three compounds from patent US9340821B2, “Specific fluorescent probe based on albumin pseudo-esterase hydrolysis reaction and use thereof” (DALIAN INSTITUTE OF CHEMICAL PHYSICS, CHINESE ACADEMY OF …, priority 2013, dated 2016).

For test [1], the target named is T1, HSA (Homo sapiens, UniProt P02768). Put plainly: Quantitative analysis of albumin in human plasma sample. On the set-up: from tissue; host or cells: human plasma (A3); human urine (A4). The conditions noted are these: human plasma diluted 200 times in PBS pH 7.4, probe 10 μM, 45° C., 30 min. The procedure:
(1) 1 μL of human plasma sample was diluted to 200 times by PBS (pH 7.4, 10 mM), then samples were incubated turmoil at 45° C. for 10 min.
(2) 4 μL fluorescent probe B (0.5 mM) was added to the above solution to make the final concentration of the fluorescent probe to 10 μM, and then samples were incubated at 45° C.
(3) After 30 min, 200 μL of ice-cold CH3CN was added to the sample and stirred, and then the reaction was stopped.
(4) Detecting the fluorescence intensity of probe B (λex=342 nm, λem=416 nm) and hydrolysate B1 (λex=452 nm, λem=564 nm) at corresponding wavelength and calculating the fluorescence intensity ratio of B1 to B, the fluorescence ratio was substituted into working curve from example 2, concentration of HSA in plasma albumin was calculated as […].

Test [2] has as its target T1, HSA. Put plainly: Quantitative analysis of albumin in urine sample. The conditions noted are these: human urine diluted with PBS pH 7.4, probe 10 μM, 37° C., 30 min. The procedure:
(1) 490 μL of human urine sample was diluted by 490 μL PBS (pH 7.4, 10 mM), and then samples were incubated at 45° C. for 10 min.
(2) 20 μL fluorescent probe C (0.5 mM) was added to the above solution to make the final concentration of the fluorescent probe to 10 μM, and then samples were incubated turmoil at 37° C. for 30 min, 1 mL ice-cold CH3CN was added to the sample and stirred for 15 second, then the reaction was stopped.
(3) Detecting the fluorescence intensity of probe C (λex=342 nm, λem=416 nm) and hydrolysate C1 (λex=452 nm, λem=564 nm) at corresponding wavelength and the fluorescence intensity ratio of C1 to C was calculated.
(4) Finding the corresponding albumin level in the working curve, concentration of HSA in the sample was calculated as 48 mg/L.

Test [3] addresses T1, HSA. As to the kind of experiment: Quantitative analysis of HSA in recombinant expression system. The conditions noted are these: 1 mg/mL recombinant HSA in PBS pH 7.4, probe 10 μM, 37° C., 30 min. The procedure:
(1) 10 mg recombinant HSA was weighted and dissolved in PBS (pH=7.4), configuring to 1 mg/mL albumin solution at 37° C.
(2) 20 μL fluorescent probe D (0.5 mM) was added to the above solution to make the final concentration of the fluorescent probe to 10 μM, and then samples were incubated turmoil at 37° C. for 30 min, 1 mL ice-cold CH3CN was added to the sample and stirred for 15 second, then the reaction stopped.
(3) Detecting the fluorescence intensity of probe D (λex=342 nm, λem=416 nm) and hydrolysate D1 (λex=452 nm, λem=564 nm) at corresponding wavelength and the fluorescence intensity ratio of D1 to D was calculated.
(4) Based on the working curve, the concentration of HSA in this sample (1 mg/mL recombinant HSA solution) was calculated as 14.9 μM.

T1 sequence (P02768 25-609): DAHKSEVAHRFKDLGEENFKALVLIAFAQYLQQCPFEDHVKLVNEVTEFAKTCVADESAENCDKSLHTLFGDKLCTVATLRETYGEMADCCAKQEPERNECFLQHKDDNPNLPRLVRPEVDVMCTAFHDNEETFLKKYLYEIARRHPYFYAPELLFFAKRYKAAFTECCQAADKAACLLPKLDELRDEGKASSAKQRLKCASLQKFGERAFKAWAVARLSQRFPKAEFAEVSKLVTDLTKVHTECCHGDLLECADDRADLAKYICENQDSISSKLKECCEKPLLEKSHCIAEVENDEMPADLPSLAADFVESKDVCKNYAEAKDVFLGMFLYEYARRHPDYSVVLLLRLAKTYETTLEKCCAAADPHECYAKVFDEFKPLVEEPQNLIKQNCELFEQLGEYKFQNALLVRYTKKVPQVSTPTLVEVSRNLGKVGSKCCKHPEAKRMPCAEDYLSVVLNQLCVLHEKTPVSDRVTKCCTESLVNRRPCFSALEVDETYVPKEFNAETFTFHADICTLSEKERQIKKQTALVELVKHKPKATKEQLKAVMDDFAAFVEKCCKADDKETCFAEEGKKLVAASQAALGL

On to `CCCCN1C(=O)c2cccc3c(OC(=O)c4ccc(C)cc4)ccc(c23)C1=O` [Probe B, N-n-butyl-1,8-naphthalimide-4-(4-methylphenylbenzoate)], for which the concentration of HSA in plasma calculated from fluorescence ratio on HSA [1] was 46.2 mg/mL.
As to `O=C(O)CCCN1C(=O)c2cccc3c(OC(=O)c4ccc(-c5ccccc5)cc4)ccc(c23)C1=O` [Probe C, N-3-carboxy propyl-1,8-naphthalimide-4-phenylbenzoate], the “concentration of HSA in urine sample calculated from working curve” value at HSA [2] is 48 mg/L.
As for `CCCCN1C(=O)c2cccc3c(OC(=O)c4ccc(OC)cc4)ccc(c23)C1=O` [Probe D, N-n-butyl-1,8-naphthalimide-4-(4-methoxyphenylbenzoate)], the “concentration of HSA in recombinant HSA solution calculated from working curve” value at HSA [3] is 14.9 µM.
